Experimental data: ChEMBL document CHEMBL1201862, “PubChem BioAssay data set” (2004)
Active and inactive are the calls of the source.

Assays:
[1] = biological target: T1, Caspase-3 (Homo sapiens, UniProt P42574); type: functional
T1 sequence (P42574 whole entry): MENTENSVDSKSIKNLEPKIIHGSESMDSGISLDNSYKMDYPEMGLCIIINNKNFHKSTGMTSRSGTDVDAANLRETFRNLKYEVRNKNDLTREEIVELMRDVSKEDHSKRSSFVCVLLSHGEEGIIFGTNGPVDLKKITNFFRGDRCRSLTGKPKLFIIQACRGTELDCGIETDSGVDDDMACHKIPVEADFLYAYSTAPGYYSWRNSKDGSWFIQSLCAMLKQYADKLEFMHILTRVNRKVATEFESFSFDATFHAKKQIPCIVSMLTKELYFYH

[2] = biological target: T2, Sentrin-specific protease 7 (Homo sapiens, UniProt Q9BQF6); type: functional;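 note: Luminescence-based dose-response confirmation of ultra-high-throughput screening hits, measuring inhibition of SENP7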
T2 sequence (Q9BQF6 whole entry): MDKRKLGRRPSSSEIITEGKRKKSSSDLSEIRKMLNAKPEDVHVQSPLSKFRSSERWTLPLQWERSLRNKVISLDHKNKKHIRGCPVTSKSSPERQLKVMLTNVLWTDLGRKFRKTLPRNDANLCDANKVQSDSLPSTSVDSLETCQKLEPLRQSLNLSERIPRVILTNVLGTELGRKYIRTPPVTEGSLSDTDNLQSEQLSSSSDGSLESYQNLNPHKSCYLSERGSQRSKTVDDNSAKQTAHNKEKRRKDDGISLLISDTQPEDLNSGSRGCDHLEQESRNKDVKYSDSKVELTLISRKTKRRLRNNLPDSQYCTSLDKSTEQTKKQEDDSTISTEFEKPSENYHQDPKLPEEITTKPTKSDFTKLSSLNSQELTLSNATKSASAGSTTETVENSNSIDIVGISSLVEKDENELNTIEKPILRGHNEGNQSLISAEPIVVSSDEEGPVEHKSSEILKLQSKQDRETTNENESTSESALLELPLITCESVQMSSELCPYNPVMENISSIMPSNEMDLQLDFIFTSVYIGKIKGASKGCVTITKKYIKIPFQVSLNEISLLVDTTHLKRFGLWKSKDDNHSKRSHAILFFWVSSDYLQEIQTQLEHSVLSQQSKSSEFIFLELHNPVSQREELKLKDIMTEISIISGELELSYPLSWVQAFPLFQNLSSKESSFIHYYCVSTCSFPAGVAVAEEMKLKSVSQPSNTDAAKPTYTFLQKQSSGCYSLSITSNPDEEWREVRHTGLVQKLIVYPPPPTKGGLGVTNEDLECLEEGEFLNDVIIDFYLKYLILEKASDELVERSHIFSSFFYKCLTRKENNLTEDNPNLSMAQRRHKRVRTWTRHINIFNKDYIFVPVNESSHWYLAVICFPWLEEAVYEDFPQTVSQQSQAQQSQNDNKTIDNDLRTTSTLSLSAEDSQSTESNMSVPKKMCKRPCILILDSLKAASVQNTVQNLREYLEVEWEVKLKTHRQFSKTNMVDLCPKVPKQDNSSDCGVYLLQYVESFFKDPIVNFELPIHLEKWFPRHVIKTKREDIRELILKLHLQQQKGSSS

[3] = biological target: T3, Sentrin-specific protease 6 (Homo sapiens, UniProt Q9GZR1); type: functional
T3 sequence (Q9GZR1 whole entry): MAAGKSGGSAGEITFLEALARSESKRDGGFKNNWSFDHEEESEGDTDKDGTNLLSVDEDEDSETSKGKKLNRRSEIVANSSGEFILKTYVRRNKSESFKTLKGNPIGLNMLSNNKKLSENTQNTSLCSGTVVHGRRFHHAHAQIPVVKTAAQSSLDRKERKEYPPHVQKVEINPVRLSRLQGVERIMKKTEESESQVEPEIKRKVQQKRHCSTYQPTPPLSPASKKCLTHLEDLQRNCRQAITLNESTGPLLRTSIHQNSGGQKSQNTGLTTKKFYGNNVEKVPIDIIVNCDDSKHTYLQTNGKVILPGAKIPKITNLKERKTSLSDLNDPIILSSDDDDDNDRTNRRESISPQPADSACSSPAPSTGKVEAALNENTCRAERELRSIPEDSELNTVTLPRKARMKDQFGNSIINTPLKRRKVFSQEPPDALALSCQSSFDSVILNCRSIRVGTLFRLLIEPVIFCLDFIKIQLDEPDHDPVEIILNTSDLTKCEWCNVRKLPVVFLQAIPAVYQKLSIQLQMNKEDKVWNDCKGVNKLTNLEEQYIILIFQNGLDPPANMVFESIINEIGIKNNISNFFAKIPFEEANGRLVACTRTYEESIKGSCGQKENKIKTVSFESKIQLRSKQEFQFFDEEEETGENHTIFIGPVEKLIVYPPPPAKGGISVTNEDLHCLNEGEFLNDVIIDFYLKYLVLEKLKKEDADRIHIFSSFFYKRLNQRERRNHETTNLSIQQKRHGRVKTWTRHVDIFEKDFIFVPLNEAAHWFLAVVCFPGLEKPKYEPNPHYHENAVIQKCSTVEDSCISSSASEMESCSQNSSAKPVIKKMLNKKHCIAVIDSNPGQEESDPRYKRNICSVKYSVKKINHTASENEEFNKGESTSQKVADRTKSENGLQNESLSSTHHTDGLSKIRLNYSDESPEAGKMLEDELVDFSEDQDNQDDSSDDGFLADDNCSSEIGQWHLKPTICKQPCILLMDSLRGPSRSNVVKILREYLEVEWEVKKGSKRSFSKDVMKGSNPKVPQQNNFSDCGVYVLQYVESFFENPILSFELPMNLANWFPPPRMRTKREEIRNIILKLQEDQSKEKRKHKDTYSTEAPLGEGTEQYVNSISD

[4] = biological target: T4, Sentrin-specific protease 8 (Homo sapiens, UniProt Q96LD8); type: functional;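 note: luminescence read-out of SENP8 inhibition, dose-response confirmation following an ultra-high-throughput screen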
T4 sequence (Q96LD8 whole entry): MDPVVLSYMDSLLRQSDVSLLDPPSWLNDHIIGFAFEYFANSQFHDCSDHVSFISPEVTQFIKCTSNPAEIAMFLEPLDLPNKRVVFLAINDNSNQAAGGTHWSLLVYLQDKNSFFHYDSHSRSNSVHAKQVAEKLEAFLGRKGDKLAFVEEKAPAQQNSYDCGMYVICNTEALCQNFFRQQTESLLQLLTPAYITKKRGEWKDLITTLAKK

[5] = biological target: T4, Sentrin-specific protease 8; test: SENP8 protease inhibitors, SAR follow-up, biochemical, luminescence (AID 504501); type: functional
[6] = biological target: T1, Caspase-3; test: SAR Analysis of small molecule inhibitors of Sentrin-specific proteases (SENPs) using a Caspase-3 Selectivity assay. [Related pubchem assays (depositor defined):AID2540, AID2599, AID434973, AID489001]; type: functional
[7] = biological target: T3, Sentrin-specific protease 6; test: SAR Analysis of small molecule inhibitors of Sentrin-specific protease 6 (SENP6) using a Luminescent assay. [Related pubchem assays (depositor defined):AID2582, AID2599]; type: functional
[8] = system: HeLa; test: HeLa cell cytotoxicity, dose response, cytotoxicity control for MITF activator project, CellTiter-Glo luminescence, cherry-pick samples (AID 540259); type: functional, cell-based; conditions: Homo sapiens
[9] = biological target: T2, Sentrin-specific protease 7; test: SENP7 protease inhibitors, SAR follow-up, biochemical, luminescence (AID 504497); type: functional
[10] = biological target: Voltage-dependent T-type calcium channel subunit alpha-1H (Homo sapiens, UniProt O95180); type: functional;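 note: channel activity triggered by adding a high calcium stimulation buffer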
[11] = NIH-3T3 fibroblast cytotoxicity, dose response, cytotoxicity control, cell-based, fluorescence, Alamar Blue, secondary assay (AID 2327); type: functional;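 note: NIH-3T3 mouse fibroblasts cultured with fluconazole at 8 µg/mL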
[12] = inhibitors of firefly luciferase expression or activity, dose response, H4 neuroglioma cells, luminescence (AID 1990); type: functional, cell-based
[13] = Luminescence Cell-Based Dose Response HTS to Identify Inhibitors of 5'UTR Stem-Loop Driven Prion Protein mRNA Translation in H4 Neuroglioblastoma Cells. [Related pubchem assays: 1827 (Project Summary), 1813 (Primary HTS)]; type: functional
[14] = inhibitors of SNCA 5'UTR-driven reporter translation, confirmation, H4 neuroglioma cells, luminescence (AID 1988); type: functional, cell-based
[15] = C. albicans growth with fluconazole, confirmation, fluorescence, retest (AID 2467); type: functional, cell-based
[16] = biological target: T5, Serine/threonine-protein phosphatase (Candida dubliniensis (strain CD36 / CBS 7987 / NCPF 3949 / NRRLY-17841) (Yeast), UniProt B9W6M3); test: calcineurin pathway inhibitors in yeast reporter, dose response, S. cerevisiae, CDRE-lacZ, luminescence, secondary (AID 2388); type: functional, cell-based;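 note: yeast reporter cells carrying a calcineurin-responsive lacZ construct stimulated with calcium chloride; luminescent beta-galactosidase reporter signal in whole cells rather than isolated phosphatase activity; potency for inhibition where a drop in reporter signal means calcineurin blockade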
T5 sequence (B9W6M3 whole entry): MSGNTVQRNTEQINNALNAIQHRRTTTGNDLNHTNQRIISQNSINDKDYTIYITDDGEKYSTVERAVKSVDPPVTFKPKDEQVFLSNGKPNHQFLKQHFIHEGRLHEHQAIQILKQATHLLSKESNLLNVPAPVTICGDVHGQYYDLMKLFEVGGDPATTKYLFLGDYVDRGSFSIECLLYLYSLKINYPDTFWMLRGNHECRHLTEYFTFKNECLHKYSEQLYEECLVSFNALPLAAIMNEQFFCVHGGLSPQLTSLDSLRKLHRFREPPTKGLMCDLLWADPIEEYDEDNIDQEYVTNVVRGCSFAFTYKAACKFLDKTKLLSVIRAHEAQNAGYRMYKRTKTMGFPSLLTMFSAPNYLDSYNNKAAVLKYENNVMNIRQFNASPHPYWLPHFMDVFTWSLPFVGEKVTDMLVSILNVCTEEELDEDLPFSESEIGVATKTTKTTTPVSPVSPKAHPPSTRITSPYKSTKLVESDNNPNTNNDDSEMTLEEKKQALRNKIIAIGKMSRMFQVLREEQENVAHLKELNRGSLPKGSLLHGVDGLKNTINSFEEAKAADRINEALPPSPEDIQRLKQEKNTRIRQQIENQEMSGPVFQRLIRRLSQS

[17] = biological target: T6, High affinity choline transporter 1 (Homo sapiens, UniProt Q9GZV3); test: CHT inhibitors, dose response, cell-based, 5-point CRC, membrane potential dye (AID 504840); type: functional
T6 sequence (Q9GZV3 whole entry): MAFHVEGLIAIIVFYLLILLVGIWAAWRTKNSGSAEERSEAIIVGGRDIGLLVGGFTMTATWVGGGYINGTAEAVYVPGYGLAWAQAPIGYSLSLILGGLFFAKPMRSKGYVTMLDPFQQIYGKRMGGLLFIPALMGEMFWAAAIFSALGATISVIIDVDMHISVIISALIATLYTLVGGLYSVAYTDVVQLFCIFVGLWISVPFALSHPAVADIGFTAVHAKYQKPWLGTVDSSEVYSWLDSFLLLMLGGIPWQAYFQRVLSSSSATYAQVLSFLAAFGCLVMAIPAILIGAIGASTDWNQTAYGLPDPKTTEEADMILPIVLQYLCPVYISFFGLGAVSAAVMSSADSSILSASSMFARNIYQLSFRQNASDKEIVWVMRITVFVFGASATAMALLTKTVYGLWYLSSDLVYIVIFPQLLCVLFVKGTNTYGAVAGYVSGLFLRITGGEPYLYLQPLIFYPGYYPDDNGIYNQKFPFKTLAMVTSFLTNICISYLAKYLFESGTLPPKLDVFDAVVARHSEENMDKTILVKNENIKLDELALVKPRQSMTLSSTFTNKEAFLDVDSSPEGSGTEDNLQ

[18] = biological target: ATP-dependent molecular chaperone HSP82 (Candida albicans (strain WO-1) (Yeast), UniProt C4YTQ8); test: loss of DOC-induced GRE-beta-galactosidase reporter signal, dose response, Hsp90 inhibitor project, S. cerevisiae, luminescence (AID 2400); type: functional, cell-based;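 note: beta-galactosidase luminescence from glucocorticoid response element reporter as proxy for Hsp90 function; inhibitor potency where signal loss means Hsp90 inhibition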
[19] = biological target: Beta-galactosidase (Escherichia coli, UniProt Q8VNN2); test: PubChem AID 485352; type: functional
[20] = biological target: Type-1 angiotensin II receptor (Homo sapiens, UniProt P30556); test: AT1 receptor antagonists, dose response, selectivity assay for APJ receptor antagonist project, cell-based, uHTS hits (AID 463214); type: functional;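 note: antagonist potency against angiotensin II stimulated AT1 response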
[21] = system: Streptococcus sp. 'group A'; test: growth inhibition of control SK(-) GAS strain, dose response, counter-screen for streptokinase expression inhibitor project, luminescence, kanamycin, BacTiterGlo, confirmation (AID 1900); type: functional, organism-based
[22] = system: Streptococcus; test: Group A Streptococcus viability loss, dose response, counter-screen for streptokinase expression inhibitor project, luminescence, BacTiterGlo (AID 1915); type: functional, organism-based;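 note: potency for reduction of bacterial viability or growth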
[23] = THP-1 cell cytotoxicity, dose response, cytotoxicity control for non-replicating M. tuberculosis project (AID 489025); type: functional
[24] = HepG2 cell cytotoxicity, dose response, cytotoxicity control for non-replicating M. tuberculosis project (AID 489018); type: functional; conditions: Mycobacterium tuberculosis
[25] = Vero E6 cell cytotoxicity, dose response, cytotoxicity control for non-replicating M. tuberculosis project, secondary assay (AID 492998); type: functional, VeroE6; conditions: Vero C1008
[26] = cells; type: functional

ATP-dependent molecular chaperone HSP82, sequence (C4YTQ8 whole entry): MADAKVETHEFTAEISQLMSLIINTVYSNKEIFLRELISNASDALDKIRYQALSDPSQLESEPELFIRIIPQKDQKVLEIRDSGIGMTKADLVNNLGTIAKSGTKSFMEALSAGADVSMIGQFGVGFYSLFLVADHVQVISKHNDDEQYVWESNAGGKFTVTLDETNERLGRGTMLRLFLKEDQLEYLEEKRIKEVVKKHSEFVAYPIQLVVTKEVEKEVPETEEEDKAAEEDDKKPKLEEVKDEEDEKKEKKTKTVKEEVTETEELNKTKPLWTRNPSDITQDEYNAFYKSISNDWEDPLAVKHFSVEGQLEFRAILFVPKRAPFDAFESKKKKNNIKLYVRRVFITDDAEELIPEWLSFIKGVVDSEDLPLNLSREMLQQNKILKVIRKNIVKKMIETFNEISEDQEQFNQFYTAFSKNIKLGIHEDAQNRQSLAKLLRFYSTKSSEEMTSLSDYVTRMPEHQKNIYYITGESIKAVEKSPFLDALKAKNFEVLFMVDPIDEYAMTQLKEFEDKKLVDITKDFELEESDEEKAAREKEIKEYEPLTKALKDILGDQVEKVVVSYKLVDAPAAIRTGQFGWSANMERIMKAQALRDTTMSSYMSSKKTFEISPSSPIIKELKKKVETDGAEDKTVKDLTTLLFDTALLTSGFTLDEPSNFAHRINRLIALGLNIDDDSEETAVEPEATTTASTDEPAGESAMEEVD
Voltage-dependent T-type calcium channel subunit alpha-1H, sequence (O95180 whole entry): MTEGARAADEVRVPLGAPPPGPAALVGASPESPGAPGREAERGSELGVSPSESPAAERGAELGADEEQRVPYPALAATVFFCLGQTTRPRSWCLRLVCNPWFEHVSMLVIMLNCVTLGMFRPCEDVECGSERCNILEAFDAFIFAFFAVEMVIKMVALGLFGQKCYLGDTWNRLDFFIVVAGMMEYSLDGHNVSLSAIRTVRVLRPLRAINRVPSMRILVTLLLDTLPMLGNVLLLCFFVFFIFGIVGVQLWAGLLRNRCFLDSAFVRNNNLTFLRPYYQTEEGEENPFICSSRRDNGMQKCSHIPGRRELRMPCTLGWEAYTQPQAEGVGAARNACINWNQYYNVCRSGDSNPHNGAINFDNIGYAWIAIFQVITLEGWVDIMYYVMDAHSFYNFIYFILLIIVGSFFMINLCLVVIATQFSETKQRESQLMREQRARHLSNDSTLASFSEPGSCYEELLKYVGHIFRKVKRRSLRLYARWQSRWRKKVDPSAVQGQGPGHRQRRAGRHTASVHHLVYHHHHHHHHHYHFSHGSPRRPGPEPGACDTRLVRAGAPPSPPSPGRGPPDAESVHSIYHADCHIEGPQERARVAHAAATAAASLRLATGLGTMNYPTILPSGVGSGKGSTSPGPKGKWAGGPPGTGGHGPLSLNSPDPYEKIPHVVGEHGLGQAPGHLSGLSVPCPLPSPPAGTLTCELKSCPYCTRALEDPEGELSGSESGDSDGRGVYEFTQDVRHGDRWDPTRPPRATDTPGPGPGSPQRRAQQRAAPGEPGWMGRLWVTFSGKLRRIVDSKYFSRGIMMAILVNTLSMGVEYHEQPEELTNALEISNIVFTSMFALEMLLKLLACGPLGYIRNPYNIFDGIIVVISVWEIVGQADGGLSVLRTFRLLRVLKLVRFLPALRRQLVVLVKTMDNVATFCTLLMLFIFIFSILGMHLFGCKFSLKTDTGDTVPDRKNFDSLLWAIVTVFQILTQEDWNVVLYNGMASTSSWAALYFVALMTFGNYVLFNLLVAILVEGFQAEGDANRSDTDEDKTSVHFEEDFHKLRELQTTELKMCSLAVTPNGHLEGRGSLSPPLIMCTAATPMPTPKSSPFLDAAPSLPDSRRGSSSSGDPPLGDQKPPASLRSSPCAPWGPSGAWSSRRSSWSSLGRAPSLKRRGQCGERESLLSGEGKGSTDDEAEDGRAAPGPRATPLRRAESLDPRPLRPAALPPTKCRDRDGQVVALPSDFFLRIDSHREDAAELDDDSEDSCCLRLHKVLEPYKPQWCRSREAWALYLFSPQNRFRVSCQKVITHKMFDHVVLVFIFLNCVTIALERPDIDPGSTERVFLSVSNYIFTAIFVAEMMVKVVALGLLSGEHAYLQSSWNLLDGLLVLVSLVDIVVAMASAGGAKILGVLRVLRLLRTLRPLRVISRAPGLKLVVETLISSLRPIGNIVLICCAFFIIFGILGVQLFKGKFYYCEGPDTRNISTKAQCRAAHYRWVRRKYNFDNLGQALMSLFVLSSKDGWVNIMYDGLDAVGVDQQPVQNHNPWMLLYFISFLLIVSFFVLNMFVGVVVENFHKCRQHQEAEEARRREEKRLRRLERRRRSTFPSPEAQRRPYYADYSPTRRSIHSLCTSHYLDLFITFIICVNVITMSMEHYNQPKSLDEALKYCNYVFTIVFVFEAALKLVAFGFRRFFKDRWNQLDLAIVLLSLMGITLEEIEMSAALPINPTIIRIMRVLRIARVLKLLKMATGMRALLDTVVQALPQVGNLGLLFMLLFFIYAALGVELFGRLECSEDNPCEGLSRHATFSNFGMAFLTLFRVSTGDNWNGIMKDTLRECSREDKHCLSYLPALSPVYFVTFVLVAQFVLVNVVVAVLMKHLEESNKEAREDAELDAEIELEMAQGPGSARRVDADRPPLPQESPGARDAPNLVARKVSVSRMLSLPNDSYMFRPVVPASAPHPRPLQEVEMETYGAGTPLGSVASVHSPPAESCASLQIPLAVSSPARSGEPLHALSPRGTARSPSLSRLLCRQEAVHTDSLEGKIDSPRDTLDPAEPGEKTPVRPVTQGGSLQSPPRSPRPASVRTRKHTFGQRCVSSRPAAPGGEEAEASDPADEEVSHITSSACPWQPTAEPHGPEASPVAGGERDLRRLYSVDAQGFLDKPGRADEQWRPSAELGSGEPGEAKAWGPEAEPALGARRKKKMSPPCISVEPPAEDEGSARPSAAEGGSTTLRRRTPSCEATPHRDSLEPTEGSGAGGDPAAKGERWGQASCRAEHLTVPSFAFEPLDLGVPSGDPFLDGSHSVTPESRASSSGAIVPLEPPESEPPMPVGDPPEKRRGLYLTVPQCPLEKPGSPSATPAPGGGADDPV
Beta-galactosidase, sequence (Q8VNN2 whole entry): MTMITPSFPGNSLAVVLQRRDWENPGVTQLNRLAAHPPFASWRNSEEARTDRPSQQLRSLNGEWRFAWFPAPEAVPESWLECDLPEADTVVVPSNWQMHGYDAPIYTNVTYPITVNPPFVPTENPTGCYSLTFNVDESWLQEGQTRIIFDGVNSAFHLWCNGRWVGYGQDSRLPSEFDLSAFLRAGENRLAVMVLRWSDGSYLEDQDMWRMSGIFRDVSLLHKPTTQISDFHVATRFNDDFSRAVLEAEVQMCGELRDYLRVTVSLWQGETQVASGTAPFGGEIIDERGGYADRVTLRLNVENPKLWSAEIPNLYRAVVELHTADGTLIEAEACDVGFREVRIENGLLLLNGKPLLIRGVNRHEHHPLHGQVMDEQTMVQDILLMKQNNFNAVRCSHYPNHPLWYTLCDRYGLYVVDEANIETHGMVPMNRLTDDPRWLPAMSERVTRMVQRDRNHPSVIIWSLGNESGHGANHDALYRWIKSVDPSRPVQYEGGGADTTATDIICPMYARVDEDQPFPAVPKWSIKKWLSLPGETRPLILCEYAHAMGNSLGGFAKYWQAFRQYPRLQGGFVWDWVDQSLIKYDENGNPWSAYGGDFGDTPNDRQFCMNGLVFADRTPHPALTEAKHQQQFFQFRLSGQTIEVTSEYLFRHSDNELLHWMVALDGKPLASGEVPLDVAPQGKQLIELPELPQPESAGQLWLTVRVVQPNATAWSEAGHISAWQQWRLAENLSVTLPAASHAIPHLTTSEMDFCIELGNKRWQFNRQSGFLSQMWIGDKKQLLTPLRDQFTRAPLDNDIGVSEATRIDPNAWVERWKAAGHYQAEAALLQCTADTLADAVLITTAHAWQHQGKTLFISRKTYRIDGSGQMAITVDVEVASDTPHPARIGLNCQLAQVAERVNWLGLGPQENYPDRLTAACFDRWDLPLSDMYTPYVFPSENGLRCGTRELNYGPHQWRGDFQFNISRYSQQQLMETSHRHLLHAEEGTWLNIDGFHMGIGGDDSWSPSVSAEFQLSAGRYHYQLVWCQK
Type-1 angiotensin II receptor, sequence (P30556 whole entry): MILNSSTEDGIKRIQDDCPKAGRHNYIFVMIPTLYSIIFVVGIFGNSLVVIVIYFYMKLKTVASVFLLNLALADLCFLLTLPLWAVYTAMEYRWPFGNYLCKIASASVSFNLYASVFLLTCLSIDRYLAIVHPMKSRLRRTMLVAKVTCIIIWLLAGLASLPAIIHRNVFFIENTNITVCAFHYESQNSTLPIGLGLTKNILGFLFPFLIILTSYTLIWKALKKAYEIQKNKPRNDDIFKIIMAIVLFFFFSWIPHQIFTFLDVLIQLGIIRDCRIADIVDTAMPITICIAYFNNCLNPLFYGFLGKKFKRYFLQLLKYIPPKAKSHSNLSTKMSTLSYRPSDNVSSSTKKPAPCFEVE

Fc1ccccc1COc1ccc(C(=S)N2CCCC2)cc1
IC50 [1]: 9.99 µM (active) | IC50 [2]: 10.9 µM (active) | IC50 [3]: 17.1 µM (active) | IC50 [4]: 3.21 µM (active) | IC50 [5]: 1.55 µM (active) | IC50 [6]: 0.742 µM (active) | IC50 [7]: 1.17 µM (active) | AC50 [8]: 162 µM (active) | IC50 [9]: 1.64 µM (active)

Cc1ccc2nc(-c3cccnc3SCC(=O)N3c4ccccc4CC3C)[nH]c2c1 (stereo not drawn)
EC50 [10]: 11.2 µM (active) | IC50 [1]: 4.22 µM (active) | IC50 [2]: 2.9 µM (active) | IC50 [3]: > 100 µM (inactive) | IC50 [4]: 1.56 µM (active) | IC50 [5]: 6.28 µM (active) | IC50 [6]: 5.3 µM (active) | IC50 [7]: 5.76 µM (active) | IC50 [9]: 5.66 µM (active)

Cc1ccccc1C(=O)O/N=C/c1c(N2CCOCC2)n(C)c2ccccc12
EC50 [11]: > 160 µM (inactive) | EC50 [12]: 0.455 µM (active) | EC50 [13]: 11.8 µM (active) | EC50 [14]: 4.88 µM (active) | EC50 [15]: 0.212 µM (active) | EC50 [16]: > 180 µM (inactive) | IC50 [17]: 21.6 µM (active) | EC50 [18]: 23.7 µM (active)

O=C(NNc1ncc(C(F)(F)F)cc1Cl)c1c(Cl)cccc1Cl
EC50 [19]: > 40 µM (inactive) | IC50 [20]: > 40 µM (not active)

O=C(Nc1nnc(C2COc3ccccc3O2)o1)c1ccc(F)cc1 (stereo not drawn)
EC50 [11]: 25.4 µM (inconclusive) | EC50 [21]: 0.98 µM (active) | EC50 [15]: 0.968 µM (active) | EC50 [16]: > 180 µM (inactive) | EC50 [22]: 11.4 µM (active) | CC50 [23]: 15.7 µM (active) | CC50 [24]: 19.9 µM (active) | CC50 [25]: 11.4 µM (active) | IC50 [26]: 1.49 µM (active) | EC50 [18]: > 150 µM (inactive)
